Test results as given in the NIST ThermoML archive (doi:10.1016/j.jct.2012.01.008).

Test: xn = mol fraction of the nth substance listed
Conditions: Liquid, Vibrating tube method

CCC[N+]1(C)CCCCC1.O=S(=O)([N-]S(=O)(=O)C(F)(F)F)C(F)(F)F + COc1ccccc1
mass density [kg/m3]
Conditions | x2 = 0.1015 | x2 = 0.201 | x2 = 0.3001 | x2 = 0.4102 | x2 = 0.5003 | x2 = 0.6003 | x2 = 0.7003 | x2 = 0.8 | x2 = 0.9
298.15 K, 100 kPa | 1393.9 | 1376.9 | 1356.9 | 1330.3 | 1304.5 | 1269.5 | 1225.7 | 1169.1 | 1093.1
298.15 K, 10000 kPa | 1400.6 | 1383.6 | 1363.7 | 1337.1 | 1311.4 | 1276.3 | 1232.4 | 1175.8 | 1099.7
298.15 K, 15000 kPa | 1403.7 | 1386.7 | 1366.6 | 1340.2 | 1314.4 | 1279.4 | 1235.5 | 1178.9 | 1102.6
298.15 K, 20000 kPa | 1406.9 | 1389.9 | 1369.8 | 1343.3 | 1317.5 | 1282.6 | 1238.6 | 1182 | 1105.7
298.15 K, 25000 kPa | 1409.8 | 1392.8 | 1372.7 | 1346.2 | 1320.4 | 1285.5 | 1241.5 | 1184.8 | 1108.4
298.15 K, 30000 kPa | 1412.7 | 1395.6 | 1375.6 | 1349.1 | 1323.3 | 1288.4 | 1244.4 | 1187.7 | 1111.3
298.15 K, 35000 kPa | 1415.3 | 1398.2 | 1378.4 | 1351.9 | 1326.2 | 1291.3 | 1247.3 | 1190.6 | 1114.1
298.15 K, 40000 kPa | 1418.1 | 1401 | 1381.2 | 1354.7 | 1329.1 | 1294 | 1250.1 | 1193.3 | 1117
298.15 K, 45000 kPa | 1420.9 | 1403.8 | 1383.9 | 1357.6 | 1331.9 | 1296.7 | 1252.8 | 1196.1 | 1119.8
298.15 K, 50000 kPa | 1423.5 | 1406.4 | 1386.5 | 1360.2 | 1334.5 | 1299.3 | 1255.3 | 1198.6 | 1122.2
318.15 K, 100 kPa | 1377.3 | 1360 | 1339.7 | 1312.9 | 1286.7 | 1251.6 | 1207.7 | 1150.9 | 1074.5
318.15 K, 10000 kPa | 1384.1 | 1366.8 | 1346.6 | 1319.9 | 1293.8 | 1258.8 | 1215 | 1158.4 | 1082
318.15 K, 15000 kPa | 1387.6 | 1370.3 | 1350 | 1323.3 | 1297.3 | 1262.2 | 1218.3 | 1161.7 | 1085.2
318.15 K, 20000 kPa | 1390.6 | 1373.3 | 1353 | 1326.4 | 1300.4 | 1265.4 | 1221.5 | 1164.8 | 1088.4
318.15 K, 25000 kPa | 1393.7 | 1376.4 | 1356.1 | 1329.6 | 1303.6 | 1268.7 | 1224.8 | 1168.1 | 1091.8
